Holding throughout (format): cell-based
Data set [1] has as its system SARS-CoV-2 Wuhan, lineage B.1.1 hCoV-19/Russia/Omsk202118_1707/2020. Nature of the data set: Antiviral CPE reduction assay in Vero E6 cells, Wuhan. As to conditions: Severe acute respiratory syndrome coronavirus 2, Vero C1008, 96 h.
Data set [2] deals with SARS-CoV-2 Delta, lineage B.1.617.2 hCoV-19/Russia/PSK-2804/2021. Nature of the data set: Antiviral CPE reduction assay in Vero E6 cells, Delta. The note with it: Severe acute respiratory syndrome coronavirus 2, Vero C1008, 96 h.
For data set [3], the system named is SARS-CoV-2 Omicron, BA.1 hCoV-19/Russia/Moscow171619-031221/2021. Nature of the data set: Antiviral CPE reduction assay in Vero E6 cells, Omicron BA.1. The note with it: Severe acute respiratory syndrome coronavirus 2, Vero C1008, 96 h.
Data set [4] has as its system SARS-CoV-2 Omicron, BA 5.2 hCov-19/Russia/Moscow-49415/2022. The data set is described as follows: Antiviral CPE reduction assay in Vero E6 cells, Omicron BA.5.2. The note with it: Severe acute respiratory syndrome coronavirus 2, Vero C1008, 96 h.
In data set [5] the test system is SARS-CoV-2 Omicron, XBB 1.5 hCoV-19/Russia/SAK-SRC-8527/2023. The data set is described as follows: Antiviral CPE reduction assay in Vero E6 cells, Omicron XBB.1.5. The note with it: Severe acute respiratory syndrome coronavirus 2, Vero C1008, 96 h.
In data set [6] the test system is SARS-CoV-2 Omicron lineage BQ.1.1 hCoV-19/Russia/TOM-SRC-8663/2023. Nature of the data set: Antiviral CPE reduction assay in Vero E6 cells, Omicron BQ.1.1. As to conditions: Severe acute respiratory syndrome coronavirus 2, Vero C1008, 96 h.
The nature of data set [7]: Cytotoxicity (MTT) in Vero E6 cells. The note with it: African green monkey.

Broadly, the EC50 is the concentration giving half of the maximal effect. As a reminder, the CC50 is the concentration at which the toxic effect on the cells reaches its halfway point.

Regarding `CC(=O)C1=C(O)C=C2Oc3c(-c4csc(N/N=C/c5ccc(Br)s5)n4)c(O)c(C)c(O)c3[C@@]2(C)C1=O` [(+)-3e], the EC50 was 25.3 ± 2.2 µM in data set [1]; 41.5 ± 3.1 µM in data set [2]; 20.7 ± 1.6 µM in data set [3]; 20 ± 1.6 µM in data set [4]; 22.4 ± 2 µM in data set [5]; 32.2 ± 2.6 µM in data set [6]. Also, the CC50 at 4 days in data set [7] stood at 350 ± 21.2 µM.

As for `CCC(CC)COC(=O)[C@H](C)N[P@](=O)(OC[C@H]1O[C@@](C#N)(c2ccc3c(N)ncnn23)[C@H](O)[C@@H]1O)Oc1ccccc1` [Remdesivir, reference compound], the EC50 in data set [1] amounted to 3.8 ± 0.42 µM; in data set [2] it was 2.1 ± 0.16 µM; in data set [3], 2 ± 0.13 µM; in data set [4] it was 4.45 ± 1 µM; in data set [5], 2.65 ± 0.6 µM; in data set [6], 3.13 ± 0.9 µM. This molecule also had a CC50 at 4 days in data set [7] of 711 ± 21.2 µM.
